Experimental data published in ChEMBL document CHEMBL2396519, “Structure-based design of β-site APP cleaving enzyme 1 (BACE1) inhibitors for the treatment of Alzheimer's disease” (J Med Chem, 2013).
One block for each compound: values may come before it.

Experiments:
Mus musculus [1] = assay: Inhibition of BACE1 in TASTPM mouse assessed as reduced brain Abeta40 at 250 mg/kg, po bid after 5 days; format: functional; settings: 120 h
Mus musculus [2] = assay: Inhibition of BACE1 in TASTPM mouse assessed as reduced brain Abeta42 at 250 mg/kg, po bid after 5 days; format: functional; settings: 120 h
[3] = target: Beta-secretase 1 (Homo sapiens) (UniProt P56817); assay: Inhibition of BACE1 (unknown origin) in a cell-based assay
[4] = target: T1, Beta-secretase 2 (Homo sapiens) (UniProt Q9Y5Z0); assay: Inhibition of BACE2 (unknown origin)
T1 sequence (whole entry): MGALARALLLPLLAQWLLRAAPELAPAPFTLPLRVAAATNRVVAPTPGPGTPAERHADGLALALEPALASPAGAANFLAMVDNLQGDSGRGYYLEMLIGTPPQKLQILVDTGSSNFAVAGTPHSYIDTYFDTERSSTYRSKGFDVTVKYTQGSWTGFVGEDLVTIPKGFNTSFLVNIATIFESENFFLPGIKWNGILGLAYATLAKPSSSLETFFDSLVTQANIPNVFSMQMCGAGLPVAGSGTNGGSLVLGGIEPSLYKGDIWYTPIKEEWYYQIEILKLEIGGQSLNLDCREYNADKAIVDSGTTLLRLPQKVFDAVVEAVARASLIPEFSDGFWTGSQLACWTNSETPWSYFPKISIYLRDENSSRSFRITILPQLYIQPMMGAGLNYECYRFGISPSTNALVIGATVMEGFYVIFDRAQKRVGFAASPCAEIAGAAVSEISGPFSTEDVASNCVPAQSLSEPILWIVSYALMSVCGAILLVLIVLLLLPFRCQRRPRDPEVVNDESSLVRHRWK

[5] = target: Beta-secretase 1 (Homo sapiens) (UniProt P56817); assay: Inhibition of human recombinant BACE1 using MBP-C12Swe as substrate by FRET assay
[6] = target: Beta-secretase 1 (Homo sapiens) (UniProt P56817); assay: Inhibition of BACE1 in HEK293 cells; format: cell-based
[7] = target: T1, Beta-secretase 2 (Homo sapiens); assay: Inhibition of human BACE2 by mcaFRET assay
Homo sapiens [8] = assay: Inhibition of BACE1 in alzheimer's disease patient assessed as reduction of plasma Abeta40 level at 90 mg/kg after 7 hrs; format: functional
Homo sapiens [9] = assay: Inhibition of BACE1 in alzheimer's disease patient assessed as reduction of plasma Abeta40 level at 90 mg/kg after 24 hrs; format: functional
Sus scrofa = organism: Sus scrofa; assay: Inhibition of pig gastric mucosa pepsin
Canis familiaris [10] = assay: Inhibition of BACE1 in beagle dog assessed as reduced CSF Abeta level at 5 mg/kg, po after 9 hrs; format: functional; settings: Canis lupus familiaris
[11] = target: Cathepsin D (Homo sapiens) (UniProt P07339); assay: Inhibition of human liver Cathepsin D
Brain [12] = assay: Drug uptake in mouse brain at 10 mg/kg, po; format: ADME, organism-based; set-up: dose 10 mg/kg, route oral; settings: in vivo
Brain [13] = assay: Drug uptake in mouse brain at 100 mg/kg, po; format: ADME, organism-based; set-up: dose 100 mg/kg, route oral; settings: in vivo
[14] = Plasma concentration in beagle dog at 5 mg/kg, po after 1 hr; format: ADME, organism-based, Canis lupus familiaris; set-up: dose 5 mg/kg, route oral
Canis familiaris [15] = assay: Inhibition of BACE1 in beagle dog assessed as reduced plasma Abeta level at 5 mg/kg, po after 4 to 12 hrs; format: functional; settings: Canis lupus familiaris
Brain [16] = assay: Drug uptake in mouse brain at 30 mg/kg, po; format: ADME, organism-based; set-up: dose 30 mg/kg, route oral; settings: in vivo
Renin (Homo sapiens) = target: T2, Renin (Homo sapiens) (UniProt P00797); assay: Inhibition of recombinant renin (unknown origin)
T2 sequence (whole entry): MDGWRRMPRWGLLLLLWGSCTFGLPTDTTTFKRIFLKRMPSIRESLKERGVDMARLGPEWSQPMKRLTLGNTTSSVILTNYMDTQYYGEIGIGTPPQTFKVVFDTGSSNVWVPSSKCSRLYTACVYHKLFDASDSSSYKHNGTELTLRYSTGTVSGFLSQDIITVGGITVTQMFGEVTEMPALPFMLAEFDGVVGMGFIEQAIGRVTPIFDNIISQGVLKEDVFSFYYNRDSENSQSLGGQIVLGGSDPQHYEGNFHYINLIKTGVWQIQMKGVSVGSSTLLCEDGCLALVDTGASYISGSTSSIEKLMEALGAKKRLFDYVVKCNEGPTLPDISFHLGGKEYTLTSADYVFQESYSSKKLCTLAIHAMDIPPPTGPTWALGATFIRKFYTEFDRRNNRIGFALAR

Canis familiaris [17] = assay: Inhibition of BACE1 in beagle dog assessed as reduced CSF Abeta level at 5 mg/kg, po after 3 hrs; format: functional; settings: Canis lupus familiaris
[18] = Half life in beagle dog at 5 mg/kg, po; format: ADME, organism-based, Canis lupus familiaris; set-up: dose 5 mg/kg, route oral; settings: in vivo
Homo sapiens [19] = assay: Inhibition of BACE1 in alzheimer's disease patient assessed as reduction of CSF Abeta level at 15 mg/kg; format: functional
Homo sapiens [20] = assay: Inhibition of BACE1 in alzheimer's disease patient assessed as reduction of CSF Abeta level at 35 mg/kg; format: functional

Beta-secretase 1 (Homo sapiens), sequence (P56817 whole entry): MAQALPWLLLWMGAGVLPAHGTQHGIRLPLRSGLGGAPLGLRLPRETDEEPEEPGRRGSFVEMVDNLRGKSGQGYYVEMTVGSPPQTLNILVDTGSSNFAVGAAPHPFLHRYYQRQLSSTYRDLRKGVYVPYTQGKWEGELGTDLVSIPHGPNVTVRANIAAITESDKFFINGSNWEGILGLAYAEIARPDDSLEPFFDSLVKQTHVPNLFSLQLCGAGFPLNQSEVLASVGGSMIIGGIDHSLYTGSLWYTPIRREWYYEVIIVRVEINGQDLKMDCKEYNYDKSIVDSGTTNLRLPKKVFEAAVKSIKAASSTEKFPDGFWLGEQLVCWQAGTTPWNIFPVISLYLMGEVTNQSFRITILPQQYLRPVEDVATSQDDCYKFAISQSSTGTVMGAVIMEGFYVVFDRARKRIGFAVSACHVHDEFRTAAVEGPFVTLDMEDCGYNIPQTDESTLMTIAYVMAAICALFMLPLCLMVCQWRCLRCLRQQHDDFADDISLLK
Cathepsin D (Homo sapiens), sequence (P07339 65-162 limits assumed): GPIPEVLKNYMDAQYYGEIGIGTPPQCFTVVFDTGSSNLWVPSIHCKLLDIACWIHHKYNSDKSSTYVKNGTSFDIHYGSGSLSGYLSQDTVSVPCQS
Cathepsin D (Homo sapiens), sequence (P07339 169-412 limits assumed): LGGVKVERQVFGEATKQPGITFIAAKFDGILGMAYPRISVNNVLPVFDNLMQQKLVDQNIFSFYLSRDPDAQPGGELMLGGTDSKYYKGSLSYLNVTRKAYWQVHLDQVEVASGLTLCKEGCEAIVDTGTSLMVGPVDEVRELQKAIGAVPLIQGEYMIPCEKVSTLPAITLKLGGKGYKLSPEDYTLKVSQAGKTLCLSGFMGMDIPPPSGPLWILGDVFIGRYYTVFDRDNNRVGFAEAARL

SMILES: CCNc1cc(C(=O)N[C@@H](Cc2ccccc2)[C@H](O)CNCc2cccc(C(F)(F)F)c2)cc(N2CCCCS2(=O)=O)c1
inhibition in vivo at 250 mg/kg (Mus musculus [1]): 18%
inhibition in vivo at 250 mg/kg (Mus musculus [2]): 23%

SMILES: C[C@@H](NC(=O)c1cc(C(=O)N[C@@H](Cc2ccccc2)[C@H](O)[C@@H]2NC(C)(C)N(Cc3ccccc3)C2=O)cc(N(C)S(C)(=O)=O)c1)c1ccc(F)cc1
INH [3]: 0.03 µM

SMILES: C[C@@]1(c2cccc(-c3cncnc3)c2)CCSC(N)=N1
INH [5]: 0.92 µM

SMILES: C[C@@]1(c2cc(-c3cncnc3)c(F)cc2F)CCSC(N)=N1 [LY-2811376]
INH [6]: 0.3 µM
INH [7]: 2.8 µM
inhibition in vivo at 90 mg/kg (Homo sapiens [8]): 80%
inhibition in vivo at 90 mg/kg (Homo sapiens [9]): 64%
INH (Sus scrofa): 32.6 µM
inhibition in vivo at 5 mg/kg (Canis familiaris [10]): 70%
INH [11]: 15.7 µM
Drug uptake (Brain [12]): 1.46 µg/g
Drug uptake (Brain [13]): 12.12 µg/g
concentration at 1 h [14]: 1920 ng/mL
INH [5]: 0.24 µM
inhibition in vivo at 5 mg/kg (Canis familiaris [15]): 85%
Drug uptake (Brain [16]): 3.35 µg/g
INH (Renin (Homo sapiens)): 39 µM
inhibition in vivo at 5 mg/kg (Canis familiaris [17]): 43%
half-life [18]: 6.8 h

SMILES: NC1=N[C@@]2(c3cc(NC(=O)c4ccc(F)cn4)ccc3F)COC[C@H]2CS1 [LY-2886721]
inhibition in vivo at 15 mg/kg (Homo sapiens [19]): 30%
inhibition in vivo at 35 mg/kg (Homo sapiens [20]): 60%

Next, values leading:

INH [3]: 4 µM
INH [4]: 0.0045 µM
SMILES: CC(C)C[C@H](NC(=O)[C@@H]1CC(=O)NCCCCCCOC(=O)N[C@@H](C(C)C)C(=O)N1)[C@@H](O)C[C@@H](C)C(=O)N[C@H](C(=O)NCc1ccccc1)C(C)C

INH [3]: 18 µM
SMILES: C[C@@H](NC(=O)c1cc(C(=O)N[C@@H](Cc2ccccc2)[C@H](O)[C@@H]2NC(C)(C)N(C)C2=O)cc(N(C)S(C)(=O)=O)c1)c1ccc(F)cc1

INH [3]: 0.028 µM
SMILES: C[C@@H]1N[C@@H]([C@@H](O)[C@H](Cc2ccccc2)NC(=O)c2cc(C(=O)N[C@H](C)c3ccc(F)cc3)cc(N(C)S(C)(=O)=O)c2)C(=O)N1Cc1ccccc1

INH [5]: 790 µM
SMILES: Cc1ccc2c(c1)CSC(N)=N2
